Our source for the Kd values is ChEMBL document CHEMBL1151597, “THE ROLE OF ARGININE IN THE BINDING OF LTD4 ANTAGONISTS TO cysLT1 RECEPTORS OF GUINEA PIG LUNG” (Bioorg Med Chem Lett, 1997).

The assay deals with T1, Cysteinyl leukotriene receptor 1 (Cavia porcellus, UniProt Q2NNR5).
T1 sequence (Q2NNR5 whole entry): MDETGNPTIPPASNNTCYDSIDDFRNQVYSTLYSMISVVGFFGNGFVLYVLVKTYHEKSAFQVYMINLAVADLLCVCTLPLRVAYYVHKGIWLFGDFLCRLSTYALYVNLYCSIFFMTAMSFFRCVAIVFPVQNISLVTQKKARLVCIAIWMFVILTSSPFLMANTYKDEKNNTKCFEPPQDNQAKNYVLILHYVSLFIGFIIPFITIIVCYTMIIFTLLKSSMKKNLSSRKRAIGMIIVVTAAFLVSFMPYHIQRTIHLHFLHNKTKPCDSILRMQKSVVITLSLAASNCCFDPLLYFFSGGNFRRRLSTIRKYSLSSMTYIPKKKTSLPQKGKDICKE
Nature of the assay: Dissociation constant for CysLT1 receptor was determined by the displacement of [3H]LTD4 from guinea pig lung membranes. Format: tissue-based, Membrane. (Loss of bound radioactivity is the signal in a displacement assay; it reports binding, not function.)

`COc1cc(C(=O)NS(=O)(=O)c2ccccc2)ccc1Cn1ncc2ccc(NC(=O)OC3CCCC3)cc21` [ICI-198615] had a Kd of 0.0000301 M l-1.
